One data set has as its system Rattus norvegicus. Kind of data set: Toxicity in rat assessed as CNS side effects up to 1000 mg/kg, po administered on day 1 followed by necropsy on day 2. The format is organism-based. The following applies: in vivo.
For data set [1], the target named is T1, CYP3A4 (Homo sapiens, UniProt P08684). Nature of the data set: Inhibition of CYP3A4 in human liver microsomes using midazolam as substrate assessed as reduction in 4-OH-midazolam formation at 0.313 uM by LC/MS/MS analysis. The format is ADME. The following applies: probe midazolam.
The nature of data set [2]: Oral bioavailability in Beagle dog at 5 mg/kg after 0.033 to 24 hrs by LC/MS/MS analysis. In kind it is ADME, organism-based, Canis lupus familiaris. Particulars: in vivo.
Data set [3] concerns the target T1, CYP3A4. Nature of the data set: Inhibition of CYP3A4 in human liver microsomes using midazolam as substrate assessed as reduction in 1-OH-midazolam formation at 1.25 uM by LC/MS/MS analysis. The format is ADME. The following applies: probe midazolam.
A short description of data set [4]: Solubility of compound in phosphate buffer at pH 2 at room temperature after 3 days.
Data set [5] can be described thus: Volume of distribution at steady state in Beagle dog at 1 mg/kg, iv after 0.033 to 24 hrs by LC/MS/MS analysis. In kind it is ADME, organism-based, Canis lupus familiaris. The following applies: in vivo, read-out: Vdss.
The nature of data set [6]: Oral bioavailability in cynomolgus monkey at 5 mg/kg after 0.033 to 24 hrs by LC/MS/MS analysis. The format is ADME, organism-based, Macaca fascicularis. The following applies: in vivo.
Data set [7] is described as follows: Drug metabolism in human liver microsomes assessed as oxidation of imdazopyridine core at 10 uM after 60 mins by LC/MS/MS analysis. Particulars: 1 h. In kind it is ADME.
In data set [8] the target is T1, CYP3A4. Nature of the data set: Inhibition of CYP3A4 in human liver microsomes using midazolam as substrate assessed as reduction in 1-OH-midazolam formation at 10 uM by LC/MS/MS analysis. In kind it is ADME. The following applies: probe midazolam.
Data set [9] can be described thus: Permeability from basolateral to apical side in human Caco2 cells at 10 uM after […] by LC/MS/MS analysis. In kind it is ADME, cell-based. The following applies: Caco-2, read-out: permeability.
For data set [10], the target named is T1, CYP3A4. Nature of the data set: Inhibition of CYP3A4 in human liver microsomes using midazolam as substrate assessed as reduction in 1-OH-midazolam formation at 0.313 uM by LC/MS/MS analysis. Particulars: probe midazolam. The format is ADME.
Data set [11] is described as follows: Tmax in Beagle dog at 5 mg/kg, po after 0.033 to 24 hrs by LC/MS/MS analysis. The format is ADME, organism-based, Canis lupus familiaris. The following applies: in vivo.
A further data set has as its target T2, P2X purinoceptor 7 (Mus musculus, UniProt Q9Z1M0).
T2 sequence (Q9Z1M0 whole entry): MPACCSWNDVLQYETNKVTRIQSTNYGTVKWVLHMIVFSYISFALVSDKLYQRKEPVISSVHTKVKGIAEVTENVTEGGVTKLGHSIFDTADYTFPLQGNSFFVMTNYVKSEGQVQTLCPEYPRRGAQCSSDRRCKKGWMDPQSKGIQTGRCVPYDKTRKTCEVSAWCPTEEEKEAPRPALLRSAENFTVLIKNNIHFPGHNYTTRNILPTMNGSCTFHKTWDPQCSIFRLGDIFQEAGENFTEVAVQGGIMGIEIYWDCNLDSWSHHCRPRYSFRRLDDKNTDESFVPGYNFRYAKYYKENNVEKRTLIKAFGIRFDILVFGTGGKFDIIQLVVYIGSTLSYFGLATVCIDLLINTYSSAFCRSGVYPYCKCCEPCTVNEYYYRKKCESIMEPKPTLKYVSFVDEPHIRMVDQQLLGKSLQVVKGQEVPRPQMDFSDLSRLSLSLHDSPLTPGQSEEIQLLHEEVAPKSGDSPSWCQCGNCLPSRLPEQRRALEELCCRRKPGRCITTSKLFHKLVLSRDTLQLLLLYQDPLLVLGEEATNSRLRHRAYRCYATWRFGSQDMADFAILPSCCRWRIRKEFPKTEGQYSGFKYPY
Kind of data set: Antagonist activity at P2X7 receptor in LPS-stimulated mouse whole blood assessed as inhibition of Bz-ATP-induced IL-1beta release incubated for 30 mins after LPS stimulation for 1 hr followed by agonist addition measured after […] by ELISA. In kind it is tissue-based.

Data set [12] is described as follows: Tmax in cynomolgus monkey at 5 mg/kg, po after 0.033 to 24 hrs by LC/MS/MS analysis. The format is ADME, organism-based, Macaca fascicularis. Particulars: in vivo.
A short description of data set [13]: Protein binding in mouse plasma at 1 uM after 6 hrs by LC/MS/MS analysis. In kind it is ADME, cell-free. The following applies: read-out: PPB (converted).

The results in this text go back to ChEMBL document CHEMBL3856233, “Identification of (R)-(2-Chloro-3-(trifluoromethyl)phenyl)(1-(5-fluoropyridin-2-yl)-4-methyl-6,7-dihydro-1H-imidazo[4,5-c]pyridin-5(4H)-yl)methanone (JNJ 54166060), a Small Molecule Antagonist of the P2X7 receptor” (J Med Chem, 2016).

The structures appear in SMILES notation.

T1 sequence (P08684 whole entry): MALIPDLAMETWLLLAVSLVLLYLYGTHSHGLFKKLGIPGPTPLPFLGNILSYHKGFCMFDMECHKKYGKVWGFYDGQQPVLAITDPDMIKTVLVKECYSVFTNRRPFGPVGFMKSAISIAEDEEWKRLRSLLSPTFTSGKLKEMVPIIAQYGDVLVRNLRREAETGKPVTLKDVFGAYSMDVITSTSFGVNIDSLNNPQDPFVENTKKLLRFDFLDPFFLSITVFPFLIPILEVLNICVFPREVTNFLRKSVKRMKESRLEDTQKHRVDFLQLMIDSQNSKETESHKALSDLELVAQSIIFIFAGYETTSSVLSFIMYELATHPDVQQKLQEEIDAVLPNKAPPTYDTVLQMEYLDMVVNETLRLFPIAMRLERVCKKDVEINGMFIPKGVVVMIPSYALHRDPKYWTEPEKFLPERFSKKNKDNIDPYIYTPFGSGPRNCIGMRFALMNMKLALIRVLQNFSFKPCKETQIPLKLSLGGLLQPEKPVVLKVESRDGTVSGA

Turning to `C[C@@H]1c2ncn(-c3ccc(F)cn3)c2CCN1C(=O)c1cccc(C(F)(F)F)c1Cl`, the Activity entry with Rattus norvegicus is listed as “Non-Toxic”. Also, the inhibition at 0.313 µM at CYP3A4 [1] was determined as 0.1%; at CYP3A4 [10], 20%. The figures for the bioavailability in [2] and in data set [6] were greater than 100% and 54%, respectively. The inhibition at 1.25 µM at CYP3A4 [3] came out at 41%. In [4], this compound returned a solubility at 72 h greater than 400 µM. The Vd in [5] turned out to be 3.6 L/kg. Also, the Drug metabolism entry in data set [7] is recorded as “Metabolite_Detected”. For the same compound, the inhibition at 10 µM at CYP3A4 [8] turned out to be 74%. Moreover, the Papp B→A at 10 µM in [9] was found to be 35 ×10⁻⁶ cm/s. Also, the time to peak (Tmax) in [11] was 0.5 h; in data set [12], 2.3 h. Further, the 50% inhibitory concentration (IC50) at P2X purinoceptor 7 worked out at 160 nM. Moreover, in data set [13], the fraction unbound at 6 h, 1 µM was 0.045.
